Measurements: publication PMC12229529 (Scientific Reports, 2025)
pIC50, pKd: −log10 of the molar value.

How the values were obtained:
[1] = molecular target: serine/threonine protein kinase B (PknB); assay: SPR; format: binding, Trueperella pyogenes
PknB (His-PknB) [2] = molecular target: T1, PknB (His-PknB) (Trueperella pyogenes, UniProt A0ABV3NC81); assay: SPR; format: binding; settings: 1x PBS-P buffer; luteolin 0.3125-10 μmol/L (KD lies above the tested range)
T1 sequence (A0ABV3NC81 1-331): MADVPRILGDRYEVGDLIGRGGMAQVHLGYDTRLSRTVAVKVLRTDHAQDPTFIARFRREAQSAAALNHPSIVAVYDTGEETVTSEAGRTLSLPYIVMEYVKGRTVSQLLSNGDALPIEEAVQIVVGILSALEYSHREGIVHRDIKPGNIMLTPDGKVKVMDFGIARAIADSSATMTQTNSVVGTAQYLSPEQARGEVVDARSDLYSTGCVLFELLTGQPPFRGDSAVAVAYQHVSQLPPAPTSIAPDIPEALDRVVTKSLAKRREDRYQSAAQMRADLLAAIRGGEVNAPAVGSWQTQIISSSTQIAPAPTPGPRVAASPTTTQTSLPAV

PknB (His-PknB) [3] = molecular target: T1, PknB (His-PknB); assay: ATP consumption luminescence; format: biochemical; settings: 20 μM ATP, 10 mM MgCl2, 50 mM Tris-HCl pH 7.8, 1 mM DTT, 25 °C, 30 min

O=c1cc(-c2ccc(O)c(O)c2)oc2cc(O)cc(O)c12 [luteolin]
pKd [1]: 3.51
pKd (PknB (His-PknB) [2]): 3.51
pIC50 (PknB (His-PknB) [3]): 3.66
